Series [1] in a line: Luminescence Cell-Based Dose Confirmation HTS to Identify Inhibitors of Platelet Dense Granule Release. [Related pubchem assays: 1663 (Primary HTS), 1678 (Summary of Project)]. It is filed as functional.
The target in series [2] is T1, Trace amine-associated receptor 1 (Homo sapiens, UniProt Q96RJ0).
T1 sequence (Q96RJ0 whole entry): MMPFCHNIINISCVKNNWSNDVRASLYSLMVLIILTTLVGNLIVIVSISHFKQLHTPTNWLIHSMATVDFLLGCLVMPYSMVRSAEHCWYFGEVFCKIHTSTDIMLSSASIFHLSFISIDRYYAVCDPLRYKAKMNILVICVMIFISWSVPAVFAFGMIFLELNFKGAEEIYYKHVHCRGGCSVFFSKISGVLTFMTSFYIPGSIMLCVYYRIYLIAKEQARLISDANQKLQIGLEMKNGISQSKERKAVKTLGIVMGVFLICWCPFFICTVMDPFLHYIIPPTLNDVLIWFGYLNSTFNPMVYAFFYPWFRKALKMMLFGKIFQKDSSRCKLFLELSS
Description: Counterscreen for agonists of the human trace amine associated receptor 1 (hTAAR1): Fluorescence-based cell-based high throughput dose response assay to identify hTAAR1 agonist that also desensitize TAAR1 receptor response. It is filed as functional. (In general: Counterscreens check selectivity or assay interference.)

Series [3] concerns the target Luciferin 4-monooxygenase (Photinus pyralis, UniProt P08659). The series is described as follows: inhibition of purified Photinus pyralis luciferase – biochemical, luminescence, dose response (AID 1891).
Series [4] is described as follows: cells. It is filed as functional, cell-based.
Series [5] concerns the target Dual specificity tyrosine-phosphorylation-regulated kinase 1A (Rattus norvegicus, UniProt Q63470). It counts as biochemical, Homo sapiens.
Series [6] deals with T1, Trace amine-associated receptor 1. Description: Fluorescence-based cell-based high throughput dose response assay to identify agonists of the human trace amine associated receptor 1 (TAAR1). It is filed as functional.
The nature of series [7]: cells. It counts as functional, cell-based. The source holds these as a separate data set.
In series [8] the test system is Escherichia coli. Description: microbe, parasite or virus in culture.
Series [9] addresses T2, Short transient receptor potential channel 4 (Mus musculus, UniProt Q9QUQ5).
T2 sequence (Q9QUQ5 whole entry): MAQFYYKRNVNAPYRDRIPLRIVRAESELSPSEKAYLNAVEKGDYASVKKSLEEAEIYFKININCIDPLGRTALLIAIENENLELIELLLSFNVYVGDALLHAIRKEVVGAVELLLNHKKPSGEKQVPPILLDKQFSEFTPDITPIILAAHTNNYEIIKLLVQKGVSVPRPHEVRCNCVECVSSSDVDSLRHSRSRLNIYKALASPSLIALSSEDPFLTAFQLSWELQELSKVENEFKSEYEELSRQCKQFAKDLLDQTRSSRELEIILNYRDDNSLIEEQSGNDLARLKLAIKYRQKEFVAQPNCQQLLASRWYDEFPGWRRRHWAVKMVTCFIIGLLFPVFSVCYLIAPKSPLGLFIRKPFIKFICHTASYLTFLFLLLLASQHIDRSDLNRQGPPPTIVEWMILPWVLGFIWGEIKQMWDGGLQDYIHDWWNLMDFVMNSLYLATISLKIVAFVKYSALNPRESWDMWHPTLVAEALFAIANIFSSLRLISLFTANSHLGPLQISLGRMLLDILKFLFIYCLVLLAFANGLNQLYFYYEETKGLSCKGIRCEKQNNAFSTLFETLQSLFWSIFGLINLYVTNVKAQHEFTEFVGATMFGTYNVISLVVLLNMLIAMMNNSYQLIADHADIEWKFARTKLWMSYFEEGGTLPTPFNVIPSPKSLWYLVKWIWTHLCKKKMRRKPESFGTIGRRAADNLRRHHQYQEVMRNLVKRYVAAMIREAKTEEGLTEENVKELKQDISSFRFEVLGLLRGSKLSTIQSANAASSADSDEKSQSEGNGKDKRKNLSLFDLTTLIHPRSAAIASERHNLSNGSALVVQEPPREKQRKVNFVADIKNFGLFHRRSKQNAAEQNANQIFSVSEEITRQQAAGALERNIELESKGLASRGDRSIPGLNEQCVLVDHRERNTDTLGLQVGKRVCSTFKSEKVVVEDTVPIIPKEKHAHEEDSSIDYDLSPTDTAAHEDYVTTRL
The series is described as follows: block of DAMGO-driven TRPC4 calcium entry – cell-based, HEK293 TRPC4/mu-opioid, Fluo-4 calcium, dose response (AID 434942).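 Note: potency of inhibitors blocking the TRPC4 calcium response.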 It is filed as functional.

Series [10] addresses T3, Cytochrome P450 3A4 (Homo sapiens, UniProt P08684).
Series [11] concerns Escherichia coli. The series is described as follows: microbe, parasite or virus in culture. The source holds these as a separate data set.
Series [12] addresses T4, Endoribonuclease toxin MazF (Escherichia coli K-12, UniProt P0AE70).
T4 sequence (P0AE70 whole entry): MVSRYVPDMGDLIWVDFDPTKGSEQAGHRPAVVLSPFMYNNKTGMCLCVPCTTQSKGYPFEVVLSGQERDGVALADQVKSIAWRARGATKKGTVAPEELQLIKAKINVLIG
The series is described as follows: substrate-only fluorescence increase artefacts – biochemical, single-stranded RNase substrate, counter-screen for MazEF activator project, dose response (AID 588502). It is filed as functional.

The target in series [13] is T4, Endoribonuclease toxin MazF. Description: activation of MazEF endoribonuclease cleavage – biochemical, fluorescence, single-stranded RNA substrate, uHTS hits, dose response (AID 588481). It counts as functional.
The target of series [14] is T2, Short transient receptor potential channel 4. The series is described as follows: calcium entry via TRPC4 opening agents – cell-based, HEK293 TRPC4/mu-opioid, Fluo-4 calcium, dose response (AID 434937). It is filed as functional.
Series [15] deals with Cytochrome P450 2D6 (Homo sapiens, UniProt P10635).
Cytochrome P450 2D6, sequence (P10635 whole entry): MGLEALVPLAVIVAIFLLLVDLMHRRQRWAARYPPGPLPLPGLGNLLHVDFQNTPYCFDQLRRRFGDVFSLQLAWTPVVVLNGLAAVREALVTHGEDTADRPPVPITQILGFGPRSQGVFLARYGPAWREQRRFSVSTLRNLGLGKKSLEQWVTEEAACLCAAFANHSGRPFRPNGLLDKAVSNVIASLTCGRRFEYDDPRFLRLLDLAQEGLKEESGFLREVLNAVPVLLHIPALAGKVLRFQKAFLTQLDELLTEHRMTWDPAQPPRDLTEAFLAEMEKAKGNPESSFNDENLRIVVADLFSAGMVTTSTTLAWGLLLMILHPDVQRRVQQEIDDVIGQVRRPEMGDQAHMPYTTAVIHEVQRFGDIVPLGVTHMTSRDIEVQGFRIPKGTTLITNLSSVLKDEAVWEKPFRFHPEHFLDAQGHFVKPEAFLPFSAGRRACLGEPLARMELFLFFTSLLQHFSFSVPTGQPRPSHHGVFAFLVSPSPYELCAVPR
In series [16] the target is T3, Cytochrome P450 3A4. This is another data set of the same source.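 Note: CYP3A4 tested as one member of a cytochrome P450 panel screen.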
Series [17] addresses T5, Cytochrome P450 1A2 (Homo sapiens, UniProt P05177).
T5 sequence (P05177 whole entry): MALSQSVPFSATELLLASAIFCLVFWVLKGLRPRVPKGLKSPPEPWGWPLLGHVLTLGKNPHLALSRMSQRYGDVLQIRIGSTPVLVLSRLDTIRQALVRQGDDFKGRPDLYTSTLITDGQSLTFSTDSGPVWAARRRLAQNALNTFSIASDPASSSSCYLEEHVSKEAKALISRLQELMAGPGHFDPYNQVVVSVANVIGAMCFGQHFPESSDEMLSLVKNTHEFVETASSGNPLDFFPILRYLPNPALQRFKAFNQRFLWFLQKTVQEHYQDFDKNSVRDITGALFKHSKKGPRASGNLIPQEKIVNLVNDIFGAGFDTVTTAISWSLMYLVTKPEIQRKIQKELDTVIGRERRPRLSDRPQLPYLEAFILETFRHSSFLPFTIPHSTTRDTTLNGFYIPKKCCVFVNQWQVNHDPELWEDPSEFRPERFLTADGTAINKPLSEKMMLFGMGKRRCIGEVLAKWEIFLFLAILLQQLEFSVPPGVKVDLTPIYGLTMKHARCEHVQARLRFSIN

Series [18] has as its target Cytochrome P450 2C9 (Homo sapiens, UniProt P11712).
In series [19] the target is Cytochrome P450 2C19 (Homo sapiens, UniProt P33261). Description: Cytochrome panel assay with activity outcomes. Panel member name: p450-cyp2c19 Compounds with AC50 equal or less than 10 uM are considered active. It counts as functional.
Cytochrome P450 2C19, sequence (P33261 whole entry): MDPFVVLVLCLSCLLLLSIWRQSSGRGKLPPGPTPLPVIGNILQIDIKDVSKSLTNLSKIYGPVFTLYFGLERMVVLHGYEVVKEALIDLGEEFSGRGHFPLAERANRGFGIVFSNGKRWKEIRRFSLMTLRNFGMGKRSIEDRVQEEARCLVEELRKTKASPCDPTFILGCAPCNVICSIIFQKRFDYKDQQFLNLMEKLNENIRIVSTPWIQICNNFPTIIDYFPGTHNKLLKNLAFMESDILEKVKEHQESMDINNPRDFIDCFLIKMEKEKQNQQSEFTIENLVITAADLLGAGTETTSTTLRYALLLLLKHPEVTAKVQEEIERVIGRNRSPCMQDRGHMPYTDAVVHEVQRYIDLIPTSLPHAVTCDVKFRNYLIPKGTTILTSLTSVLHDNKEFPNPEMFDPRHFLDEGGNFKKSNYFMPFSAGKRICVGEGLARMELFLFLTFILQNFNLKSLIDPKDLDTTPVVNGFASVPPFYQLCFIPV
Series [20] is described as follows: blockers of bursicon-stimulated LGR2 cAMP reporter – cell-based, HEK293, CRE-luciferase reporter, cherry pick, set 2, dose response (AID 743343).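 Note: transfected cells were stimulated with diluted bursicon conditioned medium after compound addition.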 It is filed as functional. A general note: Reporter assays use an easily measured gene product as a stand-in for the process of interest.
Series [21] is described as follows: toxicity toward HepG2 liver cells – cell-based, plate reader, cherry-pick, antagonist series, cytotoxicity control, dose response (AID 743416). It counts as functional.
Series [22] in a line: blockade of melanocortin 4 receptor signaling – cell-based, plate reader, cherry pick, counter-screen for LGR2 antagonist project, dose response (AID 743444).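 Note: transfected HEK 293 cells stimulated with alpha-MSH peptide; potency of inhibitors of the alpha-MSH evoked signal.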 It is filed as functional.
Series [23] has as its target T6, Polyadenylate-binding protein 1 (Homo sapiens, UniProt P11940). The series is described as follows: MLLE domain peptide-binding blockers, IC50 – biochemical, fluorescence polarization, FITC-PAM2 peptide, dose response (AID 602259). The settings on record: read-out: IC50_Mean. It is filed as functional. A general note: Fluorescence polarisation rises when a labelled molecule tumbles more slowly, as on binding a larger partner.

Series [24] has as its system HEK293. Description: EBV LMP1 TES2 canonical NF-kB signalling blockers – cell-based, HEK293, luciferase, cherry-pick, dose response (AID 588343). It counts as functional. The settings on record: Homo sapiens.
Series [25] deals with T6, Polyadenylate-binding protein 1. The series is described as follows: MLLE binding blockers, Cy5 peptide tracer – biochemical, fluorescence polarization, Cy5-PAM2 peptide, secondary, miRNA deadenylation inhibitor project, dose response (AID 602260). The settings on record: read-out: IC50_Mean. It counts as functional.
The target in series [26] is 5-hydroxytryptamine receptor 5A (Homo sapiens, UniProt P47898). Description: Counterscreen for agonists of OPRM1-OPRD1 heterodimerization: luminescence-based cell-based high throughput dose response assay to identify agonists of 5-hydroxytryptamine (serotonin) 5A receptor (HTR5A). [Related pubchem assays (depositor defined):AID504326, AID504355, AID504692, AID504904, AID504905]. It counts as functional.
5-hydroxytryptamine receptor 5A, sequence (P47898 whole entry): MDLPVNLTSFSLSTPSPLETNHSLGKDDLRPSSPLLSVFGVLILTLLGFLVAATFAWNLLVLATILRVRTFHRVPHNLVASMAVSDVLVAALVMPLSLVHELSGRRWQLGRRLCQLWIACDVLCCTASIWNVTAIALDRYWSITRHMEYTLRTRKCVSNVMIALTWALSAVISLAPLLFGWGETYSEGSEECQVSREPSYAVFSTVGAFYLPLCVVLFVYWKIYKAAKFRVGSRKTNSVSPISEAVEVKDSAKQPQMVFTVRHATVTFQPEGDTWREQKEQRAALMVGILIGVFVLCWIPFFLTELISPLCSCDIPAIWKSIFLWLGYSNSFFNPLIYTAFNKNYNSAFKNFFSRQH

In series [27] the target is Mu-type opioid receptor (Homo sapiens, UniProt P35372). Description: Counterscreen for agonists of heterodimerization of the mu 1 (OPRM1) and delta 1 (OPRD1) opioid receptors: Luminescence-based cell-based high throughput dose response assay to identify agonists of OPRM1 homodimerization. It counts as functional.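 Note: U2OS cells expressing OPRM1 and beta-arrestin as split beta-galactosidase partners.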
Mu-type opioid receptor, sequence (P35372 whole entry): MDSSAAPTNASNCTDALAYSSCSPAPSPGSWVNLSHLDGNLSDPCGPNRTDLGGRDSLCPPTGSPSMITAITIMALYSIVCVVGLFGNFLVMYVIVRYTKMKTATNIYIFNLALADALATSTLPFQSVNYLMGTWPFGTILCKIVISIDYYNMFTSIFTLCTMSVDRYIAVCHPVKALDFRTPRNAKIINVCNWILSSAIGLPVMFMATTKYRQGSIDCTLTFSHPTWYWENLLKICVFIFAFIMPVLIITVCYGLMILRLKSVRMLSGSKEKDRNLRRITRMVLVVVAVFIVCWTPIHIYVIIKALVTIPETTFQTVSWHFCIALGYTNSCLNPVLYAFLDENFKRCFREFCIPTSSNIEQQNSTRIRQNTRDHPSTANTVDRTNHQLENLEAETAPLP
For series [28], the target named is Delta-type opioid receptor (Homo sapiens, UniProt P41143). Description: Counterscreen for agonists of heterodimerization of the mu 1 (OPRM1) and delta 1 (OPRD1) opioid receptors: Luminescence-based cell-based high throughput dose response assay to identify agonists of OPRD1 homodimerization. [Related pubchem assays (depositor defined):AID504326, AID504355, AID504692, AID504904, AID504905]. It counts as functional.
Delta-type opioid receptor, sequence (P41143 whole entry): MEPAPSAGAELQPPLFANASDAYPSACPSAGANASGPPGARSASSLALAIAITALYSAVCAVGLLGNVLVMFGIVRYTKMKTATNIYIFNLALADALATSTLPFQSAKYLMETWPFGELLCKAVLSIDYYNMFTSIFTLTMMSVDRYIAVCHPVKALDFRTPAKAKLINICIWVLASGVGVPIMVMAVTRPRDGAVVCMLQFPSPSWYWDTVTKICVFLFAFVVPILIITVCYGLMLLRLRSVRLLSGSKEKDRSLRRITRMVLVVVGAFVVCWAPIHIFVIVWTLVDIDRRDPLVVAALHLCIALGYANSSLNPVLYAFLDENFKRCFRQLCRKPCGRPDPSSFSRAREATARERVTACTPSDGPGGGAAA

The source made the active and inactive calls.

T3 sequence (P08684 whole entry): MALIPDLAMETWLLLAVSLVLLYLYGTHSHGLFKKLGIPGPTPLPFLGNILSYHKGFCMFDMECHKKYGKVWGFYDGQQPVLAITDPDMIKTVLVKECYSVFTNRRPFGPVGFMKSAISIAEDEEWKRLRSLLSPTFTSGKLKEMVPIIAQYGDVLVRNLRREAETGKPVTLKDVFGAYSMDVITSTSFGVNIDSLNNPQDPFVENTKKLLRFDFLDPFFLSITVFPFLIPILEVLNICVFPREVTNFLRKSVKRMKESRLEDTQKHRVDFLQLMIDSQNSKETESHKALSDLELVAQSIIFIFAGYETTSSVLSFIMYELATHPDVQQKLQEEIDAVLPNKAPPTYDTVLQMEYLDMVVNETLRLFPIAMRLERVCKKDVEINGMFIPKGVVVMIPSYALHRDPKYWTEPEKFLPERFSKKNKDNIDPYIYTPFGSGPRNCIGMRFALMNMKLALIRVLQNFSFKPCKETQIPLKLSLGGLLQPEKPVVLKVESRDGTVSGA
T6 sequence (P11940 whole entry, the tested form may be a part): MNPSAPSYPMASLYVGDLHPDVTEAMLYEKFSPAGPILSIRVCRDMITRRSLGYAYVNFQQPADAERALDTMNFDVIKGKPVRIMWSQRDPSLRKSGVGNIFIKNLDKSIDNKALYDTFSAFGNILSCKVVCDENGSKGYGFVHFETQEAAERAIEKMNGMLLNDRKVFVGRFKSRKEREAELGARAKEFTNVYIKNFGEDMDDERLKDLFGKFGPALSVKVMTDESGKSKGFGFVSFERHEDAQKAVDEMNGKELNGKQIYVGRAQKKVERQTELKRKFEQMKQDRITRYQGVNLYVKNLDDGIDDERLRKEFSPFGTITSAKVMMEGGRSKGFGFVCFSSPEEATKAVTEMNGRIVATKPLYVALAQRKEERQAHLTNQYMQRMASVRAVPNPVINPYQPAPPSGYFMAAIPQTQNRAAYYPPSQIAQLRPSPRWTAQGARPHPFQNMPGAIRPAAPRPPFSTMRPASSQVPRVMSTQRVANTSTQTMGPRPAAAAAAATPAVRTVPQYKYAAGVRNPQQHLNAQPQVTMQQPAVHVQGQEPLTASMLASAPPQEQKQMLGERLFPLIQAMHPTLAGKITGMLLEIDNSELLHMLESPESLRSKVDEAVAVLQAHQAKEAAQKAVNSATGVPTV
Luciferin 4-monooxygenase, sequence (P08659 whole entry): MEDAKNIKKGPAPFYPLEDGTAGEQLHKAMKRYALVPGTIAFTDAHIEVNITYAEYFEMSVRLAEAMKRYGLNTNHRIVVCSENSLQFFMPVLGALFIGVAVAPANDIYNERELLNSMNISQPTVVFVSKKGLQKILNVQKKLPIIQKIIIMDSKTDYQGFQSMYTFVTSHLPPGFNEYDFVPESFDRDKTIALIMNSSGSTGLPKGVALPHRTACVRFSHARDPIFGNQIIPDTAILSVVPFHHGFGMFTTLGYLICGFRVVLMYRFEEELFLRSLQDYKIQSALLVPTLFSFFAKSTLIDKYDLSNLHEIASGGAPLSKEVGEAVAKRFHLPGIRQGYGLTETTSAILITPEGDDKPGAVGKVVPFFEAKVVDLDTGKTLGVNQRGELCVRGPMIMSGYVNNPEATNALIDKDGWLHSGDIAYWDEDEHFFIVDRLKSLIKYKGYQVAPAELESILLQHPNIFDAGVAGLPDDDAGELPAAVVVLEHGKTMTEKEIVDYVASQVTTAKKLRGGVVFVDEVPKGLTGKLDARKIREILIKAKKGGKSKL
Cytochrome P450 2C9, sequence (P11712 whole entry): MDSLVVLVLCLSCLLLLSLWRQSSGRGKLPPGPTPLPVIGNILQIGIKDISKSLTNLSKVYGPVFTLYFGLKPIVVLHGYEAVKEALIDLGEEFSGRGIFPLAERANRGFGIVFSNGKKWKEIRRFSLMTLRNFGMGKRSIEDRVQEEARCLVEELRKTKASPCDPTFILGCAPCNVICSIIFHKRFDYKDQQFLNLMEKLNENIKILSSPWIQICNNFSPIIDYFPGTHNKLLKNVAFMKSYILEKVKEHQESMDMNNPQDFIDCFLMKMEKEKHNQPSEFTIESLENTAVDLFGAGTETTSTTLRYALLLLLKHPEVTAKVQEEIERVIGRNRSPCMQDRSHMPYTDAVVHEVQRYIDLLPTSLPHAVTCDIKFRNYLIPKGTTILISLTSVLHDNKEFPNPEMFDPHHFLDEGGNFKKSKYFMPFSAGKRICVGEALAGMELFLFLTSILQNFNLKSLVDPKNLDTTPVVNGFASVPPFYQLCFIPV

One may read the EC50 as the concentration giving half of the maximal effect. The term AC50 denotes the midpoint of the concentration-response curve, whichever way the signal moves. Turning to `Nc1nc(Nc2cccc(F)c2)nc2ccccc12`, the EC50 in series [1] was 7.18 µM (active); in series [3] it was 0.853 µM (active); in series [6], 0.364 µM (active); in series [7] it was > 29.9 µM (inactive). Further, the IC50 was 1.65 µM (active) in series [2] and > 29.9 µM (inactive) in [4]. In addition, in series [5], the AC50 is 4.73 µM (active).
As for `c1ccc(NC(=NCc2ccco2)c2ccccc2)cc1`, the AC50 in series [8] was 47.6 µM (active). In addition, the EC50 in [9] is 18.8 µM (active).
As to `O=C(N/N=C/C1=C(N2CCOCC2)C(=C\c2ccccc2)/CC1)Nc1ccccc1`, the concentration at half-maximal activity (AC50) in series [8] was 67.6 µM (active).
Turning to `O=[N+]([O-])c1ccc(CSc2ncnc3c2ncn3[C@@H]2O[C@@H](CO)[C@@H](O)[C@H]2O)cc1`, in series [10], the AC50 result was “inconclusive”.
Turning to `CCOC(=O)N1CCC(NC(=O)c2oc3c(c2C)-c2n[nH]cc2CC3)CC1`, the concentration at half-maximal activity (AC50) in series [8] was 67 µM (active); in series [11] it was 18.4 µM (active).
Take `COc1cccc(-c2cc(C(=O)N3CCc4ccccc4C3)[nH]n2)c1`: the EC50 in series [12] and in series [13] was > 99 µM (inactive) in each case.
As for `O=c1oc2c(-c3cccc(F)c3)cc(O)cc2s1`, the concentration at half-maximal activity (AC50) in [5] was 3.74 µM (active).
Take `N#Cc1cccc(-c2nc3cnc(Oc4cccc(Cl)c4)nc3n(C3CC3)c2=O)c1`: in [10], the AC50 entry is “inconclusive”.
For `Clc1ccc(OCCNCCc2ccccc2)cc1`, the IC50 is 9.59 µM (active) in [2] and > 29.9 µM (inactive) in series [4]. Moreover, the results for the EC50 in series [14], in series [6] and in series [7] were 4.73 µM (active), 3.81 µM (active) and 21.9 µM (inactive), respectively.
Turning to `CC(C)=NOC[C@@H](O)COCc1ccco1`, the AC50 entry in [15] is listed as “inconclusive”.
With `COc1ccc(NC(=O)CN(C)S(=O)(=O)c2ccccc2)c([N+](=O)[O-])c1`, the EC50 in series [12] and in series [13] was > 99 µM (inactive) each time.
For the compound `CO[C@@H]1COC(=O)[C@@H](C)NC(=O)C/C=C\[C@@H](C)[C@H](NS(=O)(=O)c2ccc(C)cc2)COC(=O)[C@H](C)NC(=O)C/C=C\[C@H]1C`, the values for the concentration at half-maximal activity (AC50) in series [16] and in [15] were 5.01 µM (inconclusive) and “inconclusive”, respectively.
As for `N[C@@H](CCC(=O)O)C(=O)O` [GLUTAMIC ACID], the AC50 in series [17] was 39.8 µM (inconclusive); in series [18], “inactive”; in series [15], “inactive”; in series [10], “inactive”; in series [19] it was “inactive”.
Consider `O=C(CN1C(=O)c2ccccc2S1(=O)=O)Nc1ncc(Cl)cc1Cl`, for which the AC50 in series [20] is 8.67 µM (active); in series [21], > 52 µM (inactive); in series [22] it was 9.06 µM (active); in [24] it was 3.85 µM (active). The IC50 is 27.3 µM (inactive) in series [23] and > 66 µM (inactive) in series [25].
In the case of `OC(CNCCC(c1ccccc1)c1ccccc1)COc1ccccc1` (stereo unspecified), the EC50 in series [26], in [27] and in series [28] was > 92.5 µM (inactive) throughout.

Source of the values: ChEMBL document CHEMBL1201862, “PubChem BioAssay data set” (2004).
